Assay results reported in patent publication US12077503B2, “Substituted cyclic amides and their use as herbicides” (FMC CORPORATION, priority 2015, dated 2024).

How the values were obtained:
Assay type in all cases: in vivo
[1] = system: ducksalad (Heteranthera limosa); assay: Test B flooded paddy test; settings: Heteranthera limosa, 250 g ai/ha, Flood; 0 to 100 scale where 0 is no effect and 100 is complete control; read-out: Ducksalad plant response rating
Procedure, shortened: (§1)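 Evaluation by eye, against controls, occurred 13–15 d post-treatment in a greenhouse, using a 0 (no effect) to 100 (complete control) scale. Application was into the paddy water, 3 cm deep over the soil, on 2-leaf plants.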

[2] = system: barnyardgrass (Echinochloa crus-galli); assay: Test B flooded paddy test; settings: Echinochloa crus-galli, 250 g ai/ha, Flood; 0 to 100 scale where 0 is no effect and 100 is complete control; read-out: Barnyardgrass plant response rating
Procedure, shortened: as §1

rice (Oryra sativa) = assay: Test B flooded paddy test; settings: Oryza sativa, 250 g ai/ha, Flood; 0 to 100 scale where 0 is no effect and 100 is complete control; read-out: Rice plant response rating
Procedure, shortened: as §1

[3] = system: sedge, umbrella (small-flower umbrella sedge, Cyperus difformis); assay: Test B flooded paddy test; settings: Cyperus difformis, 250 g ai/ha, Flood; 0 to 100 scale where 0 is no effect and 100 is complete control; read-out: Sedge, Umbrella plant response rating
Procedure, shortened: as §1

Kochia (Kochia scoparia) [4] = assay: Test A postemergence; settings: Bassia scoparia, post-emergence, 240 h
Procedure, shortened: (§2)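 In a loam soil and sand blend, planted seeds got a preemergence directed soil spray, and young plants at the one- to two-leaf stage, 2–10 cm high, got a postemergence application; ~10 d greenhouse hold; injury rated visually, 0 = none, 100 = complete control.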

[5] = system: giant foxtail (Setaria faberii); assay: Test A postemergence; settings: Setaria faberi, post-emergence, 240 h
Procedure, shortened: as §2

[6] = system: blackgrass (Alopecurus myosuroides); assay: Test A postemergence; settings: Alopecurus myosuroides, post-emergence, 240 h
Procedure, shortened: as §2

[7] = system: barnyardgrass (Echinochloa crus-galli); assay: Test A postemergence; settings: Echinochloa crus-galli, post-emergence, 240 h
Procedure, shortened: as §2

[8] = system: Galium (catchweed bedstraw, Galium aparine); assay: Test A postemergence; settings: Galium, post-emergence, 240 h
Procedure, shortened: as §2

[9] = system: ryegrass, Italian (Italian ryegrass, Lolium multiflorum); assay: Test A postemergence; settings: Lolium multiflorum, post-emergence, 240 h
Procedure, shortened: as §2

[10] = system: wheat (Triticum aestivum); assay: Test A postemergence; settings: Triticum aestivum, post-emergence, 240 h
Procedure, shortened: as §2

[11] = system: ragweed (common ragweed, Ambrosia elatior); assay: Test A postemergence; settings: Ambrosia artemisiifolia, post-emergence, 240 h
Procedure, shortened: as §2

corn (Zea mays) = assay: Test A postemergence; settings: Zea mays, post-emergence, 240 h
Procedure, shortened: as §2

[12] = system: pigweed (Amaranthus retroflexus); assay: Test A postemergence; settings: Amaranthus retroflexus, post-emergence, 240 h
Procedure, shortened: as §2

Kochia (Kochia scoparia) [13] = assay: Test A preemergence; settings: Bassia scoparia, pre-emergence, 240 h, 0 to 100 scale where 0 is no effect and 100 is complete control, read-out: Kochia plant response rating
Procedure, shortened: as §2

[14] = system: giant foxtail (Setaria faberii); assay: Test A preemergence; settings: Setaria faberi, pre-emergence, 240 h, 0 to 100 scale where 0 is no effect and 100 is complete control, read-out: Foxtail, Giant plant response rating
Procedure, shortened: as §2

[15] = system: barnyardgrass (Echinochloa crus-galli); assay: Test A preemergence; settings: Echinochloa crus-galli, pre-emergence, 240 h, 0 to 100 scale where 0 is no effect and 100 is complete control, read-out: Barnyardgrass plant response rating
Procedure, shortened: as §2

[16] = system: ryegrass, Italian (Italian ryegrass, Lolium multiflorum); assay: Test A preemergence; settings: Lolium multiflorum, pre-emergence, 240 h, 0 to 100 scale where 0 is no effect and 100 is complete control, read-out: Ryegrass, Italian plant response rating
Procedure, shortened: as §2

[17] = system: ragweed (common ragweed, Ambrosia elatior); assay: Test A preemergence; settings: Ambrosia artemisiifolia, pre-emergence, 240 h, 0 to 100 scale where 0 is no effect and 100 is complete control, read-out: Ragweed plant response rating
Procedure, shortened: as §2

[18] = system: pigweed (Amaranthus retroflexus); assay: Test A preemergence; settings: Amaranthus retroflexus, pre-emergence, 240 h, 0 to 100 scale where 0 is no effect and 100 is complete control, read-out: Pigweed plant response rating
[19] = 125 g ai/ha, preemergence, approx. 10 d

CN1C[C@H](c2csc3c2CCOC3)[C@@H](C(=O)Nc2ccc(F)c(F)c2F)C1=O [Compound 1077]
pest or weed control at 250 g/ha [1]: 90% | pest or weed control at 250 g/ha [2]: 85% | pest or weed control at 250 g/ha (rice (Oryra sativa)): 15% | pest or weed control at 250 g/ha [3]: 0% | pest or weed control at 125 g/ha (Kochia (Kochia scoparia) [4]; 125 g ai/ha, postemergence, visual injury on 0 to 100 scale (0 no effect, 100 complete control), approx. 10 d, read-out: Kochia plant response rating): 0% | pest or weed control at 31 g/ha (Kochia (Kochia scoparia) [4]; Postemergence, 31 g ai/ha, visual injury after approx. 10 d, 0 to 100 scale, 0 no effect, 100 complete control, read-out: Plant response rating, Kochia): 0% | pest or weed control at 125 g/ha ([5]; 125 g ai/ha, postemergence, visual injury on 0 to 100 scale (0 no effect, 100 complete control), approx. 10 d, read-out: Foxtail, Giant plant response rating): 90% | pest or weed control at 31 g/ha ([5]; Postemergence, 31 g ai/ha, visual injury after approx. 10 d, 0 to 100 scale, 0 no effect, 100 complete control, read-out: Plant response rating, Foxtail, Giant): 50% | pest or weed control at 125 g/ha ([6]; 125 g ai/ha, postemergence, visual injury on 0 to 100 scale (0 no effect, 100 complete control), approx. 10 d, read-out: Blackgrass plant response rating): 30% | pest or weed control at 31 g/ha ([6]; Postemergence, 31 g ai/ha, visual injury after approx. 10 d, 0 to 100 scale, 0 no effect, 100 complete control, read-out: Plant response rating, Blackgrass): 0% | pest or weed control at 125 g/ha ([7]; 125 g ai/ha, postemergence, visual injury on 0 to 100 scale (0 no effect, 100 complete control), approx. 10 d, read-out: Barnyardgrass plant response rating): 90% | pest or weed control at 31 g/ha ([7]; Postemergence, 31 g ai/ha, visual injury after approx. 10 d, 0 to 100 scale, 0 no effect, 100 complete control, read-out: Plant response rating, Barnyardgrass): 70% | pest or weed control at 125 g/ha ([8]; 125 g ai/ha, postemergence, visual injury on 0 to 100 scale (0 no effect, 100 complete control), approx. 10 d, read-out: Galium plant response rating): 70% | pest or weed control at 31 g/ha ([8]; Postemergence, 31 g ai/ha, visual injury after approx. 10 d, 0 to 100 scale, 0 no effect, 100 complete control, read-out: Plant response rating, Galium): 20% | pest or weed control at 125 g/ha ([9]; 125 g ai/ha, postemergence, visual injury on 0 to 100 scale (0 no effect, 100 complete control), approx. 10 d, read-out: Ryegrass, Italian plant response rating): 20% | pest or weed control at 31 g/ha ([9]; Postemergence, 31 g ai/ha, visual injury after approx. 10 d, 0 to 100 scale, 0 no effect, 100 complete control, read-out: Plant response rating, Ryegrass, Italian): 0% | plant injury at 125 g/ha ([10]; 125 g ai/ha, postemergence, visual injury on 0 to 100 scale (0 no effect, 100 complete control), approx. 10 d, read-out: Wheat plant response rating): 0% | plant injury at 31 g/ha ([10]; Postemergence, 31 g ai/ha, visual injury after approx. 10 d, 0 to 100 scale, 0 no effect, 100 complete control, read-out: Plant response rating, Wheat): 0% | pest or weed control at 125 g/ha ([11]; 125 g ai/ha, postemergence, visual injury on 0 to 100 scale (0 no effect, 100 complete control), approx. 10 d, read-out: Ragweed plant response rating): 0% | pest or weed control at 31 g/ha ([11]; Postemergence, 31 g ai/ha, visual injury after approx. 10 d, 0 to 100 scale, 0 no effect, 100 complete control, read-out: Plant response rating, Ragweed): 0% | plant injury at 125 g/ha (corn (Zea mays); 125 g ai/ha, postemergence, visual injury on 0 to 100 scale (0 no effect, 100 complete control), approx. 10 d, read-out: Corn plant response rating): 10% | Corn plant response rating (crop injury, 0 = no effect, 100 = complete kill) at 31 g/ha (corn (Zea mays); Postemergence, 31 g ai/ha, visual injury after approx. 10 d, 0 to 100 scale, 0 no effect, 100 complete control): 0% | pest or weed control at 125 g/ha ([12]; 125 g ai/ha, postemergence, visual injury on 0 to 100 scale (0 no effect, 100 complete control), approx. 10 d, read-out: Pigweed plant response rating): 0% | pest or weed control at 31 g/ha ([12]; Postemergence, 31 g ai/ha, visual injury after approx. 10 d, 0 to 100 scale, 0 no effect, 100 complete control, read-out: Plant response rating, Pigweed): 0% | pest or weed control at 31 g/ha (Kochia (Kochia scoparia) [13]; 31 g ai/ha, Preemergence): 0% | pest or weed control at 125 g/ha (Kochia (Kochia scoparia) [13]; [19]): 20% | pest or weed control at 31 g/ha ([14]; 31 g ai/ha, Preemergence): 100% | pest or weed control at 125 g/ha [14, 19]: 100% | pest or weed control at 31 g/ha ([15]; 31 g ai/ha, Preemergence): 80% | pest or weed control at 125 g/ha [15, 19]: 100% | pest or weed control at 31 g/ha ([16]; 31 g ai/ha, Preemergence): 0% | pest or weed control at 125 g/ha [16, 19]: 10% | pest or weed control at 31 g/ha ([17]; 31 g ai/ha, Preemergence): 0% | pest or weed control at 125 g/ha [17, 19]: 0% | pest or weed control at 31 g/ha ([18]; 31 g ai/ha, Preemergence): 0% | pest or weed control at 125 g/ha [18, 19]: 0%
